Non-standard residues stand in square brackets, D forms with d. Residues, ends and D or L forms follow the SMILES beside them. β3hA = C[C@H](N)CC(=O)O
Tests used:
WT human PTHR-1 = target: T1, WT human PTHR-1 (Homo sapiens, UniProt Q03431); test: cAMP GloSensor dose-response in GP-2.3 cells expressing human PTHR-1; assay type: cell-based; conditions: for Fold PTH, nM (hPTHR1): EC50 relative to PTH(1-34)
T1 construct: bioactivity of the resulting compound in full-length hPTHR-1 and a truncated version; expressed in transfected cells
T1 sequence (Q03431 27-593): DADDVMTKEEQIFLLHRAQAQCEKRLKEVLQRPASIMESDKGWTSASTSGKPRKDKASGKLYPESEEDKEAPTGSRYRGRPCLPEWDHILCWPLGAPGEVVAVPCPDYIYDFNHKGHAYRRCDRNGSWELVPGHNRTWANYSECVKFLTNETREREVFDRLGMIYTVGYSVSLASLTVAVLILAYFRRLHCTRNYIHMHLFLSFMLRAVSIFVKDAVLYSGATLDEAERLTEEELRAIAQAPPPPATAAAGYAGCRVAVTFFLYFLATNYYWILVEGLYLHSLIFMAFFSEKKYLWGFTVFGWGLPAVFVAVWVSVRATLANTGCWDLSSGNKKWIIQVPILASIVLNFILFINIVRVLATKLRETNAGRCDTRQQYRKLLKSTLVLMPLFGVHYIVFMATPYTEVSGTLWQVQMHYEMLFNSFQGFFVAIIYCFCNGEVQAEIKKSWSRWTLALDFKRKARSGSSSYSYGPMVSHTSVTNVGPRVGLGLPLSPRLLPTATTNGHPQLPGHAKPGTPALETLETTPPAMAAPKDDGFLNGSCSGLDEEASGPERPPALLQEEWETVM
Procedure, shortened: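 Confluent cells preloaded with 0.5 mM d-luciferin at room temperature until luminescence baseline stabilised (30 min), then given varying agonist concentrations. Luminescence time course recorded after α/β-peptide addition. Means ±SEM of n>4 experiments, each in duplicate.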

WT rat PTHR-1 = target: T2, WT rat PTHR-1 (Rattus norvegicus, UniProt P25961); test: cAMP GloSensor dose-response in GR-35 cells expressing rat PTHR-1; assay type: cell-based; conditions: Table 7; GR-35 cells, 12-16 minutes after ligand addition; mean ± SEM
T2 construct: expressed in transfected cells
T2 sequence (P25961 27-591): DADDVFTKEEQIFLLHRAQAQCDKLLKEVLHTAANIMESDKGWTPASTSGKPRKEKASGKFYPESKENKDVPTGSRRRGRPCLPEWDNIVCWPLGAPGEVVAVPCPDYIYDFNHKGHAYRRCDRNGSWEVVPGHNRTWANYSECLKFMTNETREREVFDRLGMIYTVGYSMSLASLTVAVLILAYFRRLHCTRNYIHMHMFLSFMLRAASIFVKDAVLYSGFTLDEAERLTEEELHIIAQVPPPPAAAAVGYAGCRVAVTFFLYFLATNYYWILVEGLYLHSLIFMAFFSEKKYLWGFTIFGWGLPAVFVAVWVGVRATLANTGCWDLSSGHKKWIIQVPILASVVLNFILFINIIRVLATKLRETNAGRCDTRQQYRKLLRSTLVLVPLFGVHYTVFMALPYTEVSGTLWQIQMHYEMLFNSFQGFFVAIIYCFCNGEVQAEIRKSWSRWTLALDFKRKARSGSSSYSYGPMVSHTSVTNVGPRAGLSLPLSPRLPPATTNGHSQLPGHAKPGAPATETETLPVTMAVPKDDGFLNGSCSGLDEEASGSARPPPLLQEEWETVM

RG form of rat PTHR-1 = target: T3, RG form of rat PTHR-1 (Rattus norvegicus, UniProt P25961); test: Radio-ligand competition binding to RG form of rat PTHR-1; conditions: Table 5; rat PTHR-1; mean ± SEM; read-out: RG -log (IC50) (converted)
T3 construct: expressed in transfected cells; host or cells: COS-7
T3 sequence (P25961 27-591): T2 sequence (P25961 27-591)
Description: Data are means (±SEM) of n≥4 experiments, each performed in duplicate.

delNT PTHR1 = target: T4, delNT PTHR1 (Homo sapiens, UniProt Q03431, DEL24-181); test: cAMP-inducing potency at truncated receptor delNT PTHR1; assay type: cell-based; conditions: Table 8; EC50 relative to PTH(1-34)
T4 construct: expressed in transfected cells
T4 sequence (Q03431 with tags, fused parts or gaps DEL24-181): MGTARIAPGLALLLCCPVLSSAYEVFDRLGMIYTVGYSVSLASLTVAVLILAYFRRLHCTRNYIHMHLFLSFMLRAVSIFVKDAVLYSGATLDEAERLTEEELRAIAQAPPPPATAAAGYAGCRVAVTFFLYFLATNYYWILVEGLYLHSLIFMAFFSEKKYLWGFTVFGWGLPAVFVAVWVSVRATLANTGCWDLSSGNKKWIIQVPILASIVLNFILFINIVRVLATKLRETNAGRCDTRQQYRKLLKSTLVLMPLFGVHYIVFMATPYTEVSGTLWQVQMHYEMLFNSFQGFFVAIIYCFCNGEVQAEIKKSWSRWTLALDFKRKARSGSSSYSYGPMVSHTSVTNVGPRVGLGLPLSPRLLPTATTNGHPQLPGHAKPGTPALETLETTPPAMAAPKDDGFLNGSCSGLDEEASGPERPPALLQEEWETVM

PTH2R/PTH1R = test: cAMP response selectivity between PTH2R and PTH1R; assay type: cell-based; conditions: Table 16; most selective
Description: Selected analogs containing beta-amino acid substitutions selectively signal through one or the other of the two receptors. Without being bound to any underling biological phenomenon or mechanism, PTHR-2 likely serves an alternative function to PTHR-1 as it is highly expressed in the central nervous system. In contrast, PTHR-1 is highly expressed in bone and kidney, but not in the CNS. The analogs disclosed herein are thus useful as therapeutic compounds that a specific agonists or antagonists of PTHR-1 and PTHR-2.

CC[C@H](C)[C@H](NC(=O)[C@H](CCC(=O)O)NC(=O)[C@H](CO)NC(=O)[C@@H](NC(=O)[C@@H](N)CO)C(C)C)C(=O)N[C@@H](CCC(N)=O)C(=O)N[C@@H](CC(C)C)C(=O)N[C@@H](CCSC)C(=O)N[C@@H](Cc1c[nH]cn1)C(=O)N[C@@H](CC(N)=O)C(=O)N[C@@H](CC(C)C)C(=O)NCC(=O)N[C@@H](CCCCN)C(=O)N[C@@H](Cc1c[nH]cn1)C(=O)N[C@@H](CC(C)C)C(=O)N[C@@H](CC(N)=O)C(=O)N[C@@H](CO)C(=O)N[C@@H](CCSC)CC(=O)N[C@@H](CCC(=O)O)C(=O)N[C@@H](CCCNC(=N)N)C(=O)N[C@H](C(=O)N[C@@H](CCC(=O)O)CC(=O)N[C@@H](Cc1c[nH]c2ccccc12)C(=O)N[C@@H](CC(C)C)C(=O)N[C@@H](CCCNC(=N)N)C(=O)N[C@@H](CCCCN)CC(=O)N[C@@H](CCCCN)C(=O)N[C@@H](CC(C)C)C(=O)N[C@@H](CCC(N)=O)C(=O)N[C@@H](CC(=O)O)CC(=O)N[C@H](C(=O)N[C@@H](Cc1c[nH]cn1)C(=O)N[C@@H](CC(N)=O)C(=O)N[C@H](CC(N)=O)Cc1ccccc1)C(C)C)C(C)C [D5]
cAMP (hPTHR-1) Max (WT human PTHR-1; Table 1, luminescence counts per second relative to PTH(1-34), 12-16 minutes after ligand addition): 1.03 | Max (WT human PTHR-1; Table 6, GP-2.3 cells, 12-16 minutes after ligand addition, mean ± SEM): 223 ± 36 luminescence counts per second × 10^−3 | Max (WT rat PTHR-1): 43 ± 17 luminescence counts per second × 10−3 | IC50 (RG form of rat PTHR-1): 1.74 nM

CC[C@H](C)[C@H](NC(=O)[C@H](CCC(=O)O)NC(=O)[C@H](CO)NC(=O)[C@@H](NC(=O)C[C@H](C)N)C(C)C)C(=O)N[C@@H](CCC(N)=O)C(=O)N[C@@H](CC(C)C)C(=O)N[C@@H](CCSC)C(=O)N[C@@H](Cc1c[nH]cn1)C(=O)N[C@@H](CC(N)=O)C(=O)N[C@@H](CC(C)C)C(=O)NCC(=O)N[C@@H](CCCCN)C(=O)N[C@@H](Cc1c[nH]cn1)C(=O)N[C@@H](CC(C)C)C(=O)N[C@@H](CC(N)=O)C(=O)N[C@@H](CO)C(=O)N[C@@H](CCSC)C(=O)N[C@@H](CCC(=O)O)C(=O)N[C@@H](CCCNC(=N)N)C(=O)N[C@H](C(=O)N[C@@H](CCC(=O)O)C(=O)N[C@@H](Cc1c[nH]c2ccccc12)C(=O)N[C@@H](CC(C)C)C(=O)N[C@@H](CCCNC(=N)N)C(=O)N[C@@H](CCCCN)C(=O)N[C@@H](CCCCN)C(=O)N[C@@H](CC(C)C)C(=O)N[C@@H](CCC(N)=O)C(=O)N[C@@H](CC(=O)O)C(=O)N[C@H](C(=O)N[C@@H](Cc1c[nH]cn1)C(=O)N[C@@H](CC(N)=O)C(=O)N[C@@H](Cc1ccccc1)C(N)=O)C(C)C)C(C)C [β^3Ala(1)] (H-[β3hA]VSEIQLMHNLGKHLNSMERVEWLRKKLQDVHNF-NH2)
Fold PTH, nM (hPTHR1) (WT human PTHR-1; Table 8): 2.2 | EC50 (WT human PTHR-1; Table 8, cAMP-inducing potency, N-terminal modifications, read-out: hPTHR1 EC50, nM (Means ± SEM)): 0.2 ± 0.09 nM | Fold PTH, nM (deINT PTHR1) (delNT PTHR1): 0.4

CC[C@H](C)[C@H](NC(=O)[C@H](CCC(=O)O)NC(=O)[C@H](CO)NC(=O)[C@@H](NC(=O)[C@@H](N)CO)C(C)C)C(=O)N[C@@H](CCC(N)=O)CC(=O)N[C@@H](CC(C)C)C(=O)N[C@@H](CCSC)C(=O)N[C@@H](Cc1c[nH]cn1)C(=O)N[C@@H](CC(N)=O)C(=O)N[C@@H](CC(C)C)C(=O)NCC(=O)N[C@@H](CCCCN)C(=O)N[C@@H](Cc1c[nH]cn1)C(=O)N[C@@H](CC(C)C)C(=O)N[C@@H](CC(N)=O)C(=O)N[C@@H](CO)C(=O)N[C@@H](CCSC)C(=O)N[C@@H](CCC(=O)O)C(=O)N[C@@H](CCCNC(=N)N)C(=O)N[C@H](C(=O)N[C@@H](CCC(=O)O)C(=O)N[C@@H](Cc1c[nH]c2ccccc12)C(=O)N[C@@H](CC(C)C)C(=O)N[C@@H](CCCNC(=N)N)C(=O)N[C@@H](CCCCN)C(=O)N[C@@H](CCCCN)C(=O)N[C@@H](CC(C)C)C(=O)N[C@@H](CCC(N)=O)C(=O)N[C@@H](CC(=O)O)C(=O)N[C@H](C(=O)N[C@@H](Cc1c[nH]cn1)C(=O)N[C@@H](CC(N)=O)C(=O)N[C@@H](Cc1ccccc1)C(N)=O)C(C)C)C(C)C [β^3Gln(6)]
cAMP response PTH2R/PTH1R (PTH2R/PTH1R): 133 | Fold PTH, nM (hPTHR1) (WT human PTHR-1; Table 8): 159.7 | Fold PTH, nM (deINT PTHR1) (delNT PTHR1): 110

Source: patent US10501518B2 (priority 2013, dated 2019)
